Values joined by “and” are separate entries in the source; they are usually repeats but may differ in a detail not shown here. Equal entries are not always repeated. Where two headings read alike, the source gives them in different places. Blank lines part the entries; values can stand above or below the compound they belong to.
Columns and labels:
[1] = test system: HL-60 cells; assay: MTT cytotoxicity assay, HL-60; assay type: cell-based, human; details: for IC50: Homo sapiens, HL-60, 48 h, MTT, 46 h + 2 h incubation
Method: (§1) The first stage of the study used the MTT viability test to determine the cytotoxicity of ten compounds, i.e., 3-arylidenechromanone, 3-arylideneflavanone, spirochromanone and spiro- flavanone analogues, against four human cancer cell lines: HL-60, NALM-6, WM-115 and COLO-205.
(§2) Cytotoxicity was tested against human skin melanoma cells (WM-115, ECACC, Salisbury, UK), two human leukemia cell lines, viz. promyelocytic leukemia (HL-60) and lymphoblastic leukemia (NALM-6), and human colon adenocarcinoma cells (COLO-205). The cell lines COLO-205, WM-115 and HL-60 used in this work came from the ATCC American Type Culture Collection (Manassas, VA, USA), whereas the NALM-6 cell line was purchased from the German Collection of Microorganisms and Cell Cultures (Braunschweig, Germany). The leukaemia cells and colon adenocarcinoma were cultured in RPMI 1640 medium (Invitrogen, Grand Island, NY, USA) supplemented with 10% fetal bovine serum (FBS; Invitrogen) and gentamicin (25 µg/mL; KRKA, Novo Mesto, Slovenia). For melanoma WM-115 cells, Dulbecco’s minimal essential medium (DMEM; Invitrogen) was used. All cell lines were cultured at 37 °C in a humidified atmosphere of 5% CO2 in air.
(§3) For all experiments, the studied compounds were dissolved in DMSO (Sigma-Aldrich) and were further diluted in culture medium to obtain <0.1% DMSO concentration. In each experiment, controls with and without 0.1% DMSO were performed. The cytotoxicity of all compounds and of the reference compounds 4-chromanone and 3-benzylideneflavanone was determined by the MTT assay, i.e., 3-(4,5-dimethylthiazol-2-yl)-2,5-diphenyltetrazolium bromide (Sigma, St. Louis, MO, USA), which measures cellular dehydrogenase activity. Exponentially growing cells were seeded a day before the experiment onto a 96-well microplates (Nunc, Roskilde, Denmark) at a density up to 6–8 × 10^3 cells/well (depending on the cell line). Subsequently, various concentrations of the studied compounds freshly prepared in DMSO and diluted with complete culture medium were added. All compounds were tested for their cytotoxicity at a final concentration of 10^−7–10^−3 M. After 46 h of incubation with the studied compounds, the cells were treated with the MTT reagent and incubation was continued for another two hours. MTT – formazan crystals were dissolved in 20% sodium dodecyl sulphate (SDS, Sigma-Aldrich) and 50% DMF (Sigma-Aldrich) at pH 4.7; following this, absorbance was read at 570 nm on a multifunctional Victor ELISA-plate reader (Perkin Elmer, Turku, Finland). The IC50 values, i.e., the concentration of the test compound required to reduce the cell survival fraction to 50% of controls, were calculated from concentration-response curves and used as a measure of the sensitivity of the cells to a given treatment. As a control, cultured cells were grown in the absence of drugs. The data points represent the means of at least five to ten repeats ± standard deviation (S.D.).

[2] = test system: NALM-6 cells; assay: MTT cytotoxicity assay, NALM-6; assay type: cell-based, human; details: Homo sapiens, NALM-6, 48 h, MTT, 46 h + 2 h incubation
Method: as §1, §2, §3

[3] = test system: WM-115 cells; assay: MTT cytotoxicity assay, WM-115; assay type: cell-based, human; details: Homo sapiens, WM-115, 48 h, MTT, 46 h + 2 h incubation
Method: as §1, §2, §3

[4] = test system: COLO-205 cells; assay: MTT cytotoxicity assay, COLO-205; assay type: cell-based, human; details: Homo sapiens, COLO 205, 48 h, 46 h + 2 h incubation
Method: as §1, §2, §3

[5] = Lipophilicity (logP) by RP-TLC; details: RP-18 F254S TLC plates
Description: Lipophilicity is one of the most important physicochemical properties in pharmaceutical research. It can be considered a key determinant of the pharmacokinetic properties of a drug. It is commonly measured by the partition coefficient between water and n-octanol, being expressed as logP [14]. […] Knowledge of the partition coefficient is valuable: it is frequently used in structure–activity relationship (SAR) and quantitative structure–activity relationship (QSAR) studies. The experimental lipophilicity of the synthesized compounds, viz. benzylideneflavanones, benzylidenechromanones and spiropyrazolines, was determined using RP-TLC. […] It is important to examine the relationship between structure of the compound and its lipophilicity and cytotoxicity.
The RP-TLC experiments were performed on TLC plates (5 × 10 cm) RP-18 F254S (Merck, Darmstadt, Germany). The synthesized compounds were dissolved in N,N-dimethylformamide DMF (2 mg/mL). […] A DMF-water solvent system was used as mobile phase. […] All experiments were performed at room temperature. The logP parameter was calculated using the equation from the calibration curve.

[6] = Red blood cell lysis assay; assay type: cell-based; details: human, 2% red blood cell suspension, 2% RBC suspension, 37 °C, Triton X-100 = 100%, read-out: percentage of hemolysis
Description: (§4) All synthesized compounds with potential biological activity have to be tested for blood compatibility since xenobiotics will react with blood cells upon administration. In this case, biocompatibility refers to the quantification of cellular and plasma components of the blood. The measurement of the integrity of RBC membrane is considered a simple and reliable method for estimating hemocompatibility.
(§5) The studies on biological material were approved by the Bioethics Committee of the Medical University of Lodz, Poland (RNN/109/16/KE). The blood samples were obtained from healthy donors at the Blood Donation Centre in Lodz. The procedure for plasma preparation for erythrotoxicity studies was described previously. The influence of synthesized compounds as well as two reference compounds flavanone and chromanone on RBC membrane integrity was performed by lysis assay which was conducted according to our previous protocol. Briefly, 2% RBC suspension in 0.9% NaCl was incubated at 37 °C for one hour with the tested compounds at various concentrations corresponding to their activity towards cancer cell lines or 0.9% NaCl (control). The samples were centrifuged at 3000 rpm for 10 min and the absorbance of the supernatant was measured at 550 nm. The results are presented as percentage of haemolysis where a sample containing 10 μL of 2.0% v/v Triton X-100 was regarded as a positive control contributing to 100% of haemolysis. A sample containing saline solution represented spontaneous haemolysis of RBCs (control). The studies were performed on four biological samples obtained from different blood donors (n = 4). The results are presented as mean ± standard deviation (SD). The coefficient of variability for the method was counted: W = 9.51%, n = 5.

[7] = test system: red blood cells (RBC membrane integrity); assay: Red blood cell lysis assay; assay type: cell-based; details: 2% RBC suspension, 37 °C, 1 h
Description: as §4, §5

[8] = test system: erythrocytes; assay: Red blood cell morphology (phase-contrast microscopy); assay type: cell-based; details: 2% erythrocyte suspension, 37 °C, 1 h, phase contrast 400×
Method: Studies on erythrocyte morphology complement the erythrotoxicity studies because they provide information on potential immediate interactions of the tested compounds with the erythrocyte lipid bilayer, and the possibility of creating pathological forms of erythrocytes, which are not able to carry oxygen. The effects of the synthesized compounds, and the two reference compounds chromanone and flavanone, on the morphology of erythrocytes is shown in Figure 6. Briefly, 2% RBC suspension was incubated with 0.9% NaCl (control samples) or tested compounds at various concentrations corresponding to their activity towards cancer cell lines.
A 2% erythrocyte suspension was incubated at 37 °C for one hour with various concentrations of synthesized compounds. The morphology of the RBCs was examined by means of a phase contrast Opta-Tech inverted microscope, at 400× magnification, equipped with software (OptaView 7) for image analysis.

[9] = test system: HL-60 cells; assay: Cell cycle analysis by flow cytometry (propidium iodide); assay type: cell-based, human; details: for cell cycle, G1, mean / cell cycle, G2/M, mean / cell cycle, S, mean: mean of n=2; for cell cycle distribution, G1 / cell cycle distribution, G2 / cell cycle distribution, G2/M: HL-60, 20 h, mean ± SD, n = 2
Method: The next stage examined the effects of the selected compounds on cell cycle progression in HL-60 leukemia cells. […] One million HL-60 (subline CCL 240; cell type: promyeloblast) cells in 3 mL of RPMI 1640 supplemented with 20% FBS were seeded on 6-well plate. […] Fixed cells were stored in −20 °C for 2–3 days. Before analysis, cells were centrifuged (10 min, 1500 rpm, 4 °C) and washed twice with cold PBS. After the second wash, the cells were suspended in 1mL of PBS containing 100 μg of RNase A and incubated in 37 °C for 10 min. Next, 5 μL of solution of propidium iodide (1 mg/mL) was added to each sample and incubated in dark for 30 min at RT. Stained cells were analyzed by flow cytometry (FACS Calibur, BD Biosciences, San Jose, CA, USA). Data from 10,000 gated cells were collected using CellQuestPro software (Ver 6.0, Becton Dickinson) and cell cycle analysis was performed with ModFit LT software (Ver 3.2, Verity Software House, Topsham, ME, USA).

[10] = test system: HL-60 cells; parameters: method as in PMID 30513785; details: MTT; cited from earlier work
[11] = test system: NALM-6 cells; parameters: method as in PMID 30513785; details: MTT; cited from earlier work
[12] = test system: WM-115 cells; parameters: method as in PMID 30513785; details: MTT; cited from earlier work
[13] = Figure S3, HL-60, 0.5 × IC50 (µM: quercetin 29, 1 1.5, 7 18, 10 4.7, 11 4.5, 12 6)
[14] = Figure S3, HL-60, 0.5 × IC50, each of two repetitions
[15] = Figure S3, HL-60, 1 × IC50 (µM: quercetin 58, 1 3, 7 35, 10 9.4, 11 9, 12 12)
[16] = Figure S3, HL-60, 1 × IC50, each of two repetitions
[17] = 0.5 × IC50 (µM: quercetin 29, 2 1.5, 7 18, 12 6, 11 4.5, 10 4.7)
[18] = 1 × IC50 (µM: quercetin 58, 2 3, 7 35, 12 12, 11 9, 10 9.4)

chromatographic logP [5]: 4.08
Structure (SMILES): COc1ccc(/C=C2\COc3ccccc3C2=O)cc1 [Compound 3, (E)-3-(4-methoxybenzylidene)chroman-4-one]
IC50 [1]: 45.4 ± 4.77 µM | IC50 [2]: 30.1 ± 3.15 µM | IC50 [3]: 23.5 ± 1.71 µM | IC50 [4]: 193 ± 2.9 µM | hemolysis at 1 h [6]: ≤ 5% | effect on RBC hemolysis / erythrocyte membrane integrity (in words) [7]: significant disintegration of the erythrocyte membrane at concentrations above 25 µM | erythrocyte morphology (in words) [8]: echinocytes accounted for the major part of erythrocytes

chromatographic logP [5]: 4.68 | melting point: 109 to 111.3 °C
Structure (SMILES): COc1ccc(C2CN=NC23COc2ccccc2C3=O)cc1 (stereo not shown) [Compound 4, 4′-[(4-methoxy)phenyl]-4′,5′-dihydro-4H-spiro[chroman-3,3′-pirazol]-4-one]
IC50 [1]: 74 ± 1.85 µM | IC50 [2]: 72.6 ± 4.56 µM | IC50 [3]: 75.3 ± 4.89 µM | IC50 [4]: 26.5 ± 1.8 µM | hemolysis at 1 h [6]: ≤ 5% | effect on RBC hemolysis / erythrocyte membrane integrity (in words) [7]: significant disintegration of the erythrocyte membrane at concentrations above 25 µM | erythrocyte morphology (in words) [8]: echinocytes accounted for the major part of erythrocytes

chromatographic logP [5]: 5.88 | melting point: 126.5 to 127 °C
Structure (SMILES): O=C1c2ccccc2OC(c2ccccc2)C12N=NCC2c1ccccc1 (stereo not shown) [Compound 6, 2′-phenylchromanone-3′-spiro-3,4-phenyl-1-pyrazoline]
fold lower cytotoxicity against HL-60 than compound 2 ([1]; HL-60, compared with compound 2): more than 330 fold | IC50 [1]: > 1000 µM | IC50 [2]: 44.4 ± 6.3 µM | IC50 [3]: 57.4 ± 5.8 µM | IC50 [4]: 53.6 ± 1.6 µM | erythrocyte morphology (in words) [8]: echinocytes accounted for the major part of erythrocytes

chromatographic logP [5]: 2.35 | melting point: 141 to 142 °C
Structure (SMILES): O=C1c2ccccc2OCC12N=NCC2c1ccccc1 (stereo not shown) [Compound 8, 4′-phenyl-4′,5′-dihydro-4H-spiro[chromano-3,3′-pirazol]-4-one]
IC50 [1]: 474 ± 29 µM | IC50 [2]: 282 ± 49.4 µM | IC50 [3]: 415 ± 75.4 µM | IC50 [4]: > 1000 µM | effect on RBC hemolysis / erythrocyte membrane integrity (in words) [7]: significantly greater disintegration of RBC membrane was reported at concentrations of 250 µM and 500 µM

chromatographic logP [5]: 5.69
Structure (SMILES): CCN(CC)c1ccc(C=C2C(=O)c3ccccc3OC2c2ccccc2)cc1 (stereo not shown) [Compound 11, (E)-3-(4-N,N-diethylaminobenzylidene)-2-phenylchroman-4-one]
cell cycle, G1, mean [9, 13]: 5,95% | cell cycle, G2/M, mean [9, 13]: 59,23% | cell cycle, S, mean [9, 13]: 34,83% | cell cycle, G1, single repetitions [9, 14]: 3,45% and 8,45% | cell cycle, G2/M, single repetitions [9, 14]: 64,13% and 54,32% | cell cycle, S, single repetitions [9, 14]: 27,42% and 42,23% | cell cycle, G1, mean ([9]; Figure S3, HL-60, 1 × IC50 (µM in parenthesis: quercetin 58, 1 3, 7 35, 10 9.4, 11 9, 12 12)): 3,17% | cell cycle, G2/M, mean [9, 15]: 67,76% | cell cycle, S, mean [9, 15]: 29,08% | cell cycle, G1, single repetitions [9, 16]: 5,16% and 1,17% | cell cycle, G2/M, single repetitions [9, 16]: 67,98% and 67,53% | cell cycle, S, single repetitions [9, 16]: 26,86% and 31,30% | cell cycle distribution, G1 [9, 17]: 3.2 ± 2.8% | cell cycle distribution, G2 [9, 17]: 29.1 ± 3.1% | cell cycle distribution, G2/M [9, 17]: 67.8 ± 0.3% | cell cycle distribution, G1 [9, 18]: 6 ± 3.5% | cell cycle distribution, G2 [9, 18]: 34.8 ± 10.5% | cell cycle distribution, G2/M [9, 18]: 59.2 ± 6.9% | cells arrested in G2/M phase ([9]; HL-60, concentrations of IC50 and 0.5 × IC50): 50–60% | IC50 [10]: 8.36 ± 0.63 µM | IC50 [11]: 9.08 ± 0.3 µM | IC50 [12]: 6.45 ± 0.69 µM
